Laboratory results from patent publication US8734673B2, “Boron selective ionic liquids and polymeric ionic liquids, methods of making and methods of use thereof” (The University of Toledo, priority 2008, dated 2014).
Read-outs that look alike come from different tables or passages of the source.

Columns and labels:
[1] = Surface tension, DuNuoy tensiometer; type: physicochemical; conditions: room temperature (23° C.)
Experimental: Surface tension values were measured at room temperature (23° C.) using a Model 20 DuNuoy Tensiometer (Fisher Scientific, Fair Lawn, N.J.) equipped with a platinum-iridium ring with a mean circumference of 5.940 cm and a ring/wire radius of 53.21.

[2] = Density by weighing 2.0 mL of ionic liquid; type: physicochemical
Experimental: (§1) The densities of the ionic liquids […] were determined at 23° C. by placing 2.0 mL of the ionic liquid in a 2.0 mL volumetric tube and weighing by difference. The melting points of the ionic liquids were determined using a Perkin Elmer Pyris 1 Differential Scanning Calorimeter (Boston, Mass.). Typical methods involved using a 10° C./min temperature ramp to determine and identify the first and second order thermal transitions. […] For solid compounds, the melting points were verified using a capillary melting point apparatus. Refractive index measurements were conducted at 23° C. using a Bausch & Lomb Abbe-3L refractometer.

[3] = Refractive index, Abbe refractometer; type: physicochemical
Experimental: as §1

[4] = Thermal stability of thin film in fused silica capillary, flame ionization detection; type: physicochemical
Experimental: Thermal stabilities were measured by immobilizing an approximate 0.15-0.20 microns film of the ionic liquid on the inner wall of a fused silica capillary. The capillary was then heated slowly in an oven and a very sensitive flame ionization detector (or mass spectrometer) used to detect any volatilization or decomposition of the ionic liquid. There are several advantages of using this set-up to measure the thermal stabilities of ionic liquids. The thermal stability is measured in the absence of oxygen by purging the capillary with a continuous flow of an inert gas such as helium, hydrogen, or nitrogen. […] Finally, this approach can use mass spectrometry detection to determine the likely volatilization/decomposition products.

[5] = Solvation interaction parameters by inverse gas-liquid chromatography (Abraham model); type: physicochemical
Experimental: The preparation of the capillary columns for inverse gas-liquid chromatographic analysis was performed using a previously described procedure. All capillary columns had efficiencies between 2100 to 2500 plates/meter. Characterization of the capillary columns and probe molecule descriptions are listed in supplemental information. Multiple linear regression analysis (MLRA) and statistical calculations were performed using the program Analyse-it (Microsoft, USA).
Solvation Characteristics. We have previously reported that the Abraham solvation model, a linear free energy approach that utilizes inverse gas-liquid chromatography to describe the solvation properties of a liquid, can be used to characterize room temperature ionic liquids. Described by equation 1, the model provides the so-called “interaction parameters” (r, s, a, b, l) by using multiple linear regression analysis to fit the retention factor (k, determined chromatographically) to the solute descriptors (R2, π2^Hα2H, β2^H, log L^16) for a wide variety of probe solute molecules. […]
Previously we characterized a large number of room temperature ionic liquids in terms of multiple solvation interactions using the solvation parameter model, shown in equation log k=c+rR2+sπ2^H+aα2^H+bβ2^H+l log L^16 [3] This approach utilizes inverse gas-liquid chromatography and allows the use of a large number of probe molecules to deconvolute solute retention in terms of the type and magnitude of individual solvation interactions. The solute descriptors (R2, π2^H, α2^H, .β2^H, log L^16) from Equation 3 are obtained from the literature for many probe molecules containing a variety of functional groups. The retention factor is determined chromatographically. The solute descriptors and retention factors are subjected to multiple linear regression analysis to obtain the interaction parameter coefficients (r, s, a, b, l), which ultimately characterize the stationary phase: r is the ability of the diionic liquid containing-stationary phase to interact with .π0 and n electrons of the solute, s is a measure of the dipolarity/polarizability of the diionic liquid containing-stationary phase, a defines the diionic liquid containing-stationary phase hydrogen bond basicity, b is a measure of the hydrogen bond acidity, and l refers to the ability of the diionic liquid containing-stationary phase to separate adjacent members of a homologous series.
Test solutes used to determine interaction parameters and solvation thermodynamics were dissolved in dichloromethane. […] Split injection and flame ionization detection were utilized with injection and detection temperatures of 250° C. Helium was used as the carrier gas with a column inlet pressure of 3.1 psi and flow rate of 1.0 mL/min. Methane was used to determine the dead volume of the column. Multiple linear regression analysis and statistical calculations were performed using the program Analyze-it (Microsoft).

[6] = Miscibility/solubility in heptane and water
From the text: The miscibility/solubility of all ionic liquids in both heptane and water are indicated as well.
The solubility behavior of all thirty-nine geminal dicationic ionic liquids in water and heptane also was explored.

[7] = Solubility assay of N-methyl-D-glucamine in solvents; type: physicochemical
From the text: The mechanism for the transformation of N-methyl-D-glucamine into a quaternary ammonium compound is a double nucleophilic substitution with an alkyl halide (FIG. 57). However, the first problem the inventors herein encountered with this approach was the lack of an appropriate solvent.

## 1,9-di(2,3-dimethylimidazolium)nonane di-tetrafluoroborate [C9(m2im)2-BF4]
[1]
  Surface Tension: 58.1 dynes/cm
[2]; 23° C., Tables 1 and 2
  Density: 1.31 g/mL
[3]; 23° C., Tables 1 and 2
  Refractive Index: 1.456

## C[N+]1(CCCCCCCCC[N+]2(C)CCCC2)CCCC1.O=S(=O)([N-]S(=O)(=O)C(F)(F)F)C(F)(F)F.O=S(=O)([N-]S(=O)(=O)C(F)(F)F)C(F)(F)F [C9(mpy)2-NTf2, 1,9-di(methylpyrrolidinium)nonane di-bis[(trifluoromethyl)sulfonyl]imidate]
[4]
  stable liquid range: about −4 °C to >400 °C
[5]; 40° C.
  Interaction parameter a (hydrogen bond basicity): 1.98
  Interaction parameter b (hydrogen bond acidity): 0.32
  Interaction parameter c: −2.83
  Interaction parameter l (dispersion forces): 0.62
  Interaction parameter r (interaction via nonbonding and π-electrons): 0.27
  Interaction parameter s (dipolarity/polarizability): 1.71
[5]; 70° C.
  Interaction parameter a (hydrogen bond basicity): 1.65
  Interaction parameter b (hydrogen bond acidity): 0.35
  Interaction parameter c: −2.85
  Interaction parameter l (dispersion forces): 0.48
  Interaction parameter r (interaction via nonbonding and π-electrons): 0.34
  Interaction parameter s (dipolarity/polarizability): 1.52
[5]; 100° C.
  Interaction parameter a (hydrogen bond basicity): 1.48
  Interaction parameter b (hydrogen bond acidity): 0.15
  Interaction parameter c: −2.99
  Interaction parameter l (dispersion forces): 0.42
  Interaction parameter r (interaction via nonbonding and π-electrons): 0.23
  Interaction parameter s (dipolarity/polarizability): 1.49

## [Br-].[Br-].c1ccc(Cn2cc[n+](CCCCCCCCCCCC[n+]3ccn(Cc4ccccc4)c3)c2)cc1 [C12(benzim)2-Br, 1,12-di(3-benzylimidazolium)dodecane di-bromide]
[6]; listed as 28
  Miscibility with Water: insoluble in water

## Cn1cc[n+](CCCCCCCCCCCC[n+]2ccn(C)c2)c1.[Br-].[Br-] [C12(mim)2-Br, 1,12-di(3-methylimidazolium)dodecane di-bromide]
[1]
  Surface Tension: 57.9 dynes/cm
[2]; 23° C., Tables 1 and 2
  Density: 1.27 g/mL
[6]
  Miscibility with Water: Miscible

## C=Cn1cc[n+](CCCCCCCCCCCC)c1.O=S(=O)([N-]S(=O)(=O)C(F)(F)F)C(F)(F)F [Monomer 3, 1-vinyl-3-dodecylimidazolium bis[(trifluoromethane)sulfonyl]imidate]
[2]; monomers/crosslinkers, Table A
  Density: 1.23 g/mL
[3]; monomers/crosslinkers, Table A
  Refractive Index: 1.448

## CNC[C@H](O)[C@@H](O)[C@H](O)[C@H](O)CO [N-methyl-D-glucamine]
[7]
  solubility in acetone, dimethyl formamide, tetrahydrofuran, ethyl acetate, acetonitrile and dichloromethane: insoluble
  solubility in water, dimethylsulfoxide (DMSO): only soluble
